The test system of the test is 697 B-cell NF-kB luciferase reporter, PMA/ionomycin, 16 h. As to the kind of experiment: NF-kB reporter suppression in B cells – 697 B cells, PMA/ionomycin, luminescence, dose response (AID 489034).

Activity calls are given as the source filed them.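 How the source made its calls: active means mean IC50 at or below a set limit; inactive means the rest.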 Bounds are passed on as bounds.

For `COc1cc(NC(C)CCCN)c2ncccc2c1` (centres undefined), the IC50 is > 80 µM (inactive).

Turning to `Cc1ccc(C(=O)CN2C(=O)c3ccccc3S2(=O)=O)cc1`, the IC50 is 1.33 µM.

As to `O=C(CCl)N=c1sccn1Cc1ccccc1Cl`, the 50% inhibitory concentration (IC50) was 0.222 µM.

Regarding `C=C1C(=O)O[C@@H]2C[C@@H](C)[C@@H]3C=CC(=O)[C@@]3(C)[C@@H](O)[C@H]12`, the IC50 was > 80 µM (inactive).

As for `CCCCCCCCCCCCn1ccc(=N)cc1`, the IC50 was 9.19 µM.

On to `COc1ccc(-c2nc(-c3ccccn3)no2)cc1`, for which the IC50 was 0.872 µM.

For `CCn1c(C)cc(C(=O)COC(=O)c2ccccc2[N+](=O)[O-])c1C`, the IC50 is under 0.16 µM.

Turning to `COc1cccc2c1C(CO)N1C(C#N)C3CC(C(=O)O)C(C1C2)N3C` (centres undefined), the IC50 is 0.253 µM.

As for `Cc1ccc(C(=O)Nc2cccc(C(F)(F)F)c2)cc1NC(=O)c1ccno1`, the IC50 was 4.09 µM.

In the case of `COc1cc(NC(=O)COc2cc(O)c3c(c2)OC(C)(C)CC3=O)cc(OC)c1OC`, the IC50 is 36.9 µM (inactive).

With `N#Cc1c(NC(=O)CSc2ncn[nH]2)sc2c1CCCC2`, the IC50 is 0.3 µM.

As to `COc1cc2c(cc1OC)[C@@H]1C(=O)c3ccc4c(c3O[C@@H]1CO2)C[C@H](C(C)C)O4`, the IC50 was > 80 µM (inactive).

For `COc1ccccc1C(=O)Nc1nc2ccccc2[nH]1`, the IC50 was 0.454 µM.

Regarding `CC[n+]1c(C=C2C=C(C)OC(C)=C2)sc2ccccc21`, the IC50 is > 80 µM (inactive).

`O=C(/C=C/c1ccccc1)Nc1cccc(C(=O)O)c1`: the IC50 was 0.62 µM.

For the compound `N=c1c2c(-c3ccccc3)c(-c3ccccc3)n(Cc3ccccc3)c2ncn1CCCn1ccnc1`, the IC50 is 32.2 µM (inactive).

In the case of `COC(=O)Cc1ccc(NC(=O)c2ccc(C(C)(C)C)cc2)cc1`, the IC50 was under 0.16 µM.

In the case of `O=C(NCCNCCO)C1(C(F)(F)F)C/C(=C\CCO)CCCO1` (centres undefined), the IC50 was > 80 µM (inactive).

With `CN=c1scc(-c2ccccc2F)n1/N=C/c1ccc[nH]1`, the IC50 is 0.702 µM.

For `COc1ccc(NS(=O)(=O)c2cccc(NC(=O)c3ccc(Cl)nc3)c2)cc1`, the IC50 is 70.3 µM (inactive).

Regarding `C=C1C(O)[C@@H]2O[C@]3(CC[C@H](/C=C/C(C)[C@@H]4CC(C)=CC5(O[C@H](C[C@@](C)(O)C(=O)O)CCC5O)O4)O3)CC[C@H]2O[C@@H]1C(O)CC(C)[C@H]1OC2(CCCCO2)CCC1C` (some centres undefined), the IC50 was under 0.16 µM.

Turning to `COC(=O)CCn1nnc(-c2ccc(C(C)C)cc2)n1`, the IC50 is under 0.16 µM.

Take `Cc1cc(NNC(=O)Nc2cccc(Cl)c2)nc2c1c(C)nn2C`: the IC50 is > 80 µM (inactive).

On to `Cc1nn(C(C)(C)C)c(C)c1/C=N/OC(=O)Nc1ccc(Cl)cc1`, for which the IC50 is under 0.16 µM.

Take `CC1(c2ccc3ccccc3c2)NC(=O)N(CC(=O)N2CCN(Cc3ccc(C#N)cc3)CC2)C1=O` (centres undefined): the IC50 was > 80 µM (inactive).

Turning to `OCCCNc1nccc(-c2cc(Nc3cccc(Cl)c3)ncn2)n1`, the half-maximal inhibitory concentration (IC50) was 4.1 µM.

Regarding `COc1ccc(C(=O)Nc2nc3ccccc3s2)c(OC)c1`, the IC50 was 0.275 µM.

Regarding `CC(=O)O[C@H]1[C@H]2O[C@]23[C@@H]2CC[C@]4(O)C[C@@H](O)CC[C@]4(C)C2CC[C@]3(C)[C@H]1c1ccc(=O)oc1` (some centres undefined), the IC50 is 0.223 µM.

For the compound `Cc1ccc(NC(=O)COc2ccc(N(C)C(=O)C(C)(C)C)cc2)cc1S(=O)(=O)N1CCCCC1`, the IC50 was > 80 µM (inactive).

In the case of `Cc1nn(-c2ccccc2)c(C)c1/C=N/NC(=O)c1cc(-c2cccs2)[nH]n1`, the IC50 was 21.5 µM (inactive).

Consider `O=C(CCl)N=c1sccn1Cc1ccc(Cl)cc1Cl`, for which the IC50 was under 0.16 µM.

Regarding `COc1ccc(-c2c[n+]3c(n2-c2ccc(C)cc2)CCCCC3)cc1`, the IC50 is > 80 µM (inactive).

`Cc1cc(Cl)c(S(=O)(=O)N2CCCCCC2)cc1OCC(=O)NC1CCCCC1`: the IC50 was > 80 µM (inactive).

On to `CN(C(=O)OC(C)(C)C)c1ccc(-c2nc3ccccc3s2)cc1`, for which the IC50 was under 0.16 µM.

Regarding `CCCCCCn1c2c(c(=N)c3c1CCC3)CCC2`, the IC50 is > 80 µM (inactive).

On to `Cc1cc(Cl)c(S(=O)(=O)N2CCN(c3ccc(F)cc3)CC2)cc1OCC(=O)NC1CCCCC1`, for which the IC50 was > 80 µM (inactive).

Turning to `COCCn1c(C)cc(C2=NNC(=NC3CC3)SC2)c1C`, the IC50 is under 0.16 µM.

In the case of `COc1ccc(CN(C)c2ccc(S(=O)(=O)N3CCN(C)CC3)cc2[N+](=O)[O-])cc1OC`, the IC50 was > 80 µM (inactive).

On to `Cc1cc(N2CCN(c3nc4ccccc4s3)CC2)n2ncnc2n1`, for which the IC50 was > 80 µM (inactive).

Take `C=CC(=O)Nc1ccc(Nc2nc(NC3CCC(N(C)C)CC3)nc3c2ncn3C(C)C)cc1` (centres undefined): the IC50 is 0.593 µM.

On to `COc1cc([N+](=O)[O-])cc(/C=N/NC(=O)c2ccc(NC(=O)c3ccc(C)cc3)cc2)c1O`, for which the IC50 was 1.02 µM.

In the case of `COc1cccc(NC(=O)Nc2cccc(C(=O)O)c2)c1`, the half-maximal inhibitory concentration (IC50) is 1.62 µM.

`CCN1/C(=C\c2ccc3ccccc3[n+]2CC)Sc2cc(C)ccc21`: the IC50 is > 80 µM (inactive).

Take `CN(C)c1cc[n+](CC(=O)c2ccc(-c3ccccc3)cc2)cc1`: the IC50 is 47.4 µM (inactive).

For the compound `C[C@@H]1O[C@@H](O[C@@H]2C=C3CC[C@@H]4C(CC[C@]5(C)[C@@H](c6ccc(=O)oc6)CC[C@]45O)[C@@]3(C)CC2)[C@H](O)[C@H](O)[C@H]1O` (some centres undefined), the IC50 was under 0.16 µM.

In the case of `N#Cc1c(NC(=O)CSc2ncn[nH]2)sc2c1CCCCC2`, the half-inhibitory concentration (IC50) is 0.283 µM.

For `Nc1ncnc2c1ccn2[C@@H]1O[C@H](CO)[C@@H](O)[C@H]1O`, the IC50 was 1.01 µM.

For `COc1ccc(/C=C/c2cc(-c3ccc(C)cc3)o[n+]2C)cc1`, the half-maximal inhibitory concentration (IC50) was 5.74 µM.

On to `CCOc1ccc(-c2cc(CCCC(=O)Nc3cccc(OC)c3)no2)cc1`, for which the IC50 was 11.3 µM.

In the case of `COc1cc(CSc2nnnn2-c2ccc(C)cc2)cc(OC)c1OC`, the IC50 is > 80 µM (inactive).

For `C#CC(=O)N(c1ccc(OC)cc1OC)C(C(=O)NC1CCCC1)c1cccs1` (centres undefined), the IC50 is 0.252 µM.

Regarding `CC1CCCN(c2ccc([N+](=O)[O-])cc2C(=O)c2ccccc2)C1` (centres undefined), the IC50 was > 80 µM (inactive).

With `CN(C)c1ccc(-c2n(C)c3ccccc3[n+]2C)cc1`, the IC50 was > 80 µM (inactive).

Regarding `CCCCCCCCCn1ccc(=N)cc1`, the IC50 is 46.2 µM (inactive).

As for `O=C(O)CSCC(=O)Nc1ccc(C2CCCCC2)cc1`, the concentration for half-maximal inhibition (IC50) is 0.776 µM.

As to `O=C(Nc1ccc([N+](=O)[O-])cc1)C(=O)Nc1cccc(C(=O)O)c1`, the IC50 was 0.946 µM.

As for `COc1cc(SC)ccc1C(=O)Nc1nc2ccccc2[nH]1`, the IC50 is under 0.16 µM.

On to `COc1ccc(CCNc2ncnc3sccc23)cc1OC`, for which the IC50 is 77.4 µM (inactive).

With `CC(C)Cc1cc(C(C)(C)C)ccc1OC(=S)N(C)C`, the IC50 was > 80 µM (inactive).

As to `c1ccc2sc(Sc3ncnc4sccc34)nc2c1`, the half-maximal inhibitory concentration (IC50) was 0.197 µM.

As for `COc1ccc(CCNc2ncnc3sc(C)cc23)cc1OC`, the IC50 was 33.4 µM (inactive).

As for `CCOc1cc(S(=O)(=O)NCc2ccncc2)ccc1Cl`, the IC50 was > 80 µM (inactive).

As for `O=C(Nc1nc(-c2ccc(F)c(F)c2)cs1)c1ccc(OCC2CCCO2)cc1` (centres undefined), the IC50 is > 80 µM (inactive).

In the case of `O=S(=O)(NCC1CCCO1)c1ccc(-c2ccc(S(=O)(=O)NCC3CCCO3)cc2)cc1` (centres undefined), the IC50 is > 80 µM (inactive).

On to `O=C(NCCc1ccccc1)c1ccc2c(c1)OCCCO2`, for which the IC50 is 0.366 µM.

On to `CCCCCCCCCCOC(=O)Cn1c(COc2ccccc2OC)[n+](C)c2ccccc21`, for which the IC50 is > 80 µM (inactive).

Take `Cn1nc(CC(=O)Nc2ccc3c(c2)CCC3)c2ccccc2c1=O`: the IC50 is > 80 µM (inactive).

With `COc1cc2nc(NC(=O)c3ccccc3)sc(=O)c2cc1OC`, the concentration for half-maximal inhibition (IC50) is 0.444 µM.

Regarding `OCCCNc1cc(-c2ccnc(Nc3cccc(Cl)c3)n2)ccn1`, the IC50 was under 0.16 µM.

`O=C(CSc1nnnn1C1CC2CCC1C2)Nc1ccnc2ccccc12` (centres undefined): the IC50 was > 80 µM (inactive).

For `C#CC(=O)N(c1cc(OC)ccc1OC)C(C(=O)NC1CCCC1)c1cccs1` (centres undefined), the IC50 is 0.219 µM.

Take `O=C1/C(=C/c2ccccc2)C[C@@]2(O)[C@H]3Cc4ccc(O)c5c4[C@@]2(CCN3CC2CC2)C1O5` (some centres undefined): the IC50 was 6.2 µM.

Take `Nc1nc(Cl)nc2c1ncn2C1CC(O)C(CO)O1` (centres undefined): the IC50 was > 80 µM (inactive).

Consider `CCOc1ccc(-n2c(-c3ccc(OC)cc3)c[n+]3c2CCCCC3)cc1`, for which the IC50 is > 80 µM (inactive).

Consider `O=C(c1ccc(Br)cc1)c1cc([N+](=O)[O-])ccc1N1CCCCC1`, for which the IC50 was > 80 µM (inactive).

In the case of `COc1cccc2c1C(=O)c1c(O)c3c(c(O)c1C2=O)C[C@@](O)(C(=O)CO)C[C@@H]3O[C@H]1C[C@H](N)[C@@H](O)[C@H](C)O1`, the IC50 is 3.53 µM.

`C#CC(=O)N(c1ccc(OC)c(OC)c1)C(C(=O)NC1CCCC1)c1cccs1` (centres undefined): the IC50 is 0.2 µM.

As for `C#CC(=O)N(c1cccc(OC)c1)C(C(=O)NC1CCCC1)c1cccs1` (centres undefined), the IC50 is 0.219 µM.

In the case of `CCCCC[n+]1cccc2c3ccccc3ccc21`, the IC50 is > 80 µM (inactive).

For the compound `CCCCCc1ccc(OCCCC[n+]2cccc(C)c2)c(CCCCC)c1`, the IC50 was > 80 µM (inactive).

For `Cc1sc2ncnc(N3CCN(CCOc4ccc(Cl)cc4)CC3)c2c1C`, the IC50 was > 80 µM (inactive).

As for `CCCCCNC(=O)c1ccc2c(=O)n(CC3CCCO3)c(=O)[nH]c2c1` (centres undefined), the IC50 is > 80 µM (inactive).

Consider `O=C(CN1C(=O)c2ccccc2S1(=O)=O)c1ccc2c(c1)OCCCO2`, for which the IC50 is under 0.16 µM.

As for `CCC(C)(C)c1ccc(OCCCC[n+]2ccc(C)cc2)c(C(C)(C)CC)c1`, the IC50 was 22.3 µM (inactive).

For `C[C@@H]1O[C@@H](O[C@@H]2C=C3CCC4C(CC[C@]5(C)[C@@H](c6ccc(=O)oc6)CC[C@]45O)[C@@]3(C)CC2)[C@H](O)[C@H](O)[C@H]1O` (some centres undefined), the IC50 was under 0.16 µM.

For `CC(=O)c1cn(Cc2ccccc2C#N)c2ccccc12`, the IC50 was > 80 µM (inactive).

As for `COc1ccccc1C(=O)Nc1nc(-c2ccc(S(=O)(=O)N3CCOCC3)cc2)cs1`, the 50% inhibitory concentration (IC50) was 7.17 µM.

For `CCOc1ccc(NC(=O)Nc2cccc(C(=O)O)c2)cc1`, the IC50 is 0.504 µM.

In the case of `C=CCn1c(C)cc(C(=O)CN2C(=O)c3ccccc3S2(=O)=O)c1C`, the IC50 is 0.656 µM.

As a reminder, the IC50 is the midpoint of a concentration-inhibition curve.

The values are drawn from PubChem BioAssay AID489034 (Sanford-Burnham Center for Chemical Genomics, 2010).
